From patent US20240156861A1, “Cisplatin particles and uses thereof” (CRITITECH, INC., priority 2022, published 2024)

Experiments:
Type in all cases: physicochemical
[1] = Particle Size Distribution (PSD) by laser diffraction, Malvern Mastersizer 3000; conditions: dispersed in ethyl acetate
Procedure: Particle Size Distribution (PSD) by Laser Diffraction
Particle size analyses were conducted on a Malvern Mastersizer™ 3000 using the Hydro MV dispersion unit. A non-validated general PSD method/dispersant method was used to analyze the cisplatin samples. The sample preparation procedure performed was as follows:
Weigh 10 to 20 mg of cisplatin into a 30-mL vial, add 20 mL of ethyl acetate. Disperse the sample by vortexing then sonicating the suspension in an ultrasonic bath for 1 minute. Then transfer the sample suspension to the Malvem Hydro MV dispersion unit to obtain obscuration between 5 and 15%.

[2] = Bulk density analysis (modified USP <616> Method I, 10 mL graduated cylinder); conditions: not tapped
Procedure: As used herein, the bulk density of the cisplatin particles is the mass of the totality of particles in the composition divided by the total volume they occupy when poured into a graduated cylinder and not tapped. The total volume includes particle volume, inter-particle void volume, and internal pore volume.
Bulk density analysis by modified USP <616>Bulk Density of Powders Method I
Bulk density analyses were conducted using a 10 mL graduated cylinder due to low sample volume. SC1 was the only precipitate measured due to insufficient materials available for analysis from SC2 and SC3. […] Bulk density results can be seen in Table 1.

[3] = Specific Surface Area (SSA) by BET sorptometry
Procedure: As used herein, the “specific surface area” is the total surface area of the cisplatin particle per unit of cisplatin mass as measured by the Brunauer—Emmett—Teller (“BET”) isotherm (i.e.: the BET SSA). As will be understood by those of skill in the art, the SSA is determined on a per gram basis and takes into account both agglomerated and non-agglomerated cisplatin particles in the composition. The BET specific surface area test procedure is a compendial method included in both the United States Pharmaceopeia and the European Pharmaceopeia. The cisplatin particles have a specific surface area (SSA) of at least 3.5 m^2/g. In various further embodiments, the cisplatin particles have a SSA of at least 4 m^2/g, 5 m^2/g, 6 m^2/g, 7 m^2/g, 8 m^2/g, 9 m^2/g, 10 m^2/g, 11 m^2/g, 12 m^2/g, 13 m^2/g, 14 m^2/g, […] m^2/g, 17 m^2/g, 18 m^2/g, 19 m^2/g 20 m^2/g 21 m^2/g, 22 m^2/g, 23 m^2/g, or 24 m^2/g.
Specific Surface Area (SSA) determination by BET Sorptometry
Surface area analyses were conducted on a Quantachrome NOVAtouch™ LX2 BET Sorptometer. […] Surface area results can be found in Table 1.

N.N.[Cl][Pt][Cl] [Raw, Cisplatin]
PSD - Mastersizer Dv10 [1]: 1.72 μm
PSD - Mastersizer Dv50 [1]: 10.9 μm
PSD - Mastersizer Dv90 [1]: 25.9 μm
Bulk Density [2]: 1.01 g/mL
Surface Area [3]: 2.44 m^2/g
